# Test results published in patent US20080318911A1, “20-Cyclopropyl, 26,27-Alkyl/Haloalkyl Vitamin D3 Compounds and Methods of Use Thereof” (BIOXELL S.P.A., priority 2004, published 2008).
# Legend:
# [1] = Determination of Maximum Tolerated Dose (MTD) in mice; conditions: mouse, in vivo, po; female C57BL/6 mice, p.o. daily for four days; highest dose without hypercalcemia (serum calcium >10.7 mg/dl)
# [2] = test system: IFN-γ production by allogeneic PBMC; experiment: IFN-γ production in the mixed leukocyte response (MLR); assay type: cell-based; conditions: 120 h; MLR of allogeneic PBMC, 5 days, ELISA; read-out: INF-γ IC50
# Experimental: Immature dendritic cells (DC) were prepared as described in Romani, N. et al. (Romani, N. et al. (1996) J. Immunol. Meth. 196:137). IFN-γ production by allogeneic T cell activation in the mixed leukocyte response (MLR) was determined as described in Penna, G., et al., J Immunol., 164: 2405-2411 (2000).
# Briefly, peripheral blood mononuclear cells (PBMC) were separated from buffy coats by Ficoll gradient and the same number (3×10^5) of allogeneic PBMC from 2 different donors were co-cultured in 96-well flat-bottom plates. The vitamin D3 compounds were added to each of the cultures.
# RT112 = experiment: Proliferation assay using bladder cancer cell lines: RT112; assay type: cell-based, human; conditions: Homo sapiens, RT-112; 72 h culture, CyQuant proliferation assay
# Experimental: (§1) Bladder cancer cell lines (T24, RT112, HT1376 and RT4 are human bladder cancer cell lines; NHEK are normal human keratinocytes) were obtained from the European Collection of Cell Cultures (Salisbury, UK). Cells were plated at 3×10^3 per well, in flat bottomed 96-well plates in 100 μl of DMEM medium containing: 5% Fetal Clone 1,50 μg/l gentamicin, 1 mM sodium pyruvate and 1% non-essential amino acids. After culturing for 24 h at 37° C. in 5% CO2, to allow cells to adhere to the plates, VDR ligands (compounds (1)-(14)) were added at concentrations ranging from 100 μM to 0.3 μM in 100 μl of above-mentioned complete medium. After a further 72 h of culture, cell proliferation was measured using a fluorescence-based proliferation assay kit. (CyQuant Cell Proliferation Assay Kit, Molecular Probes, Eugene, Oreg., USA). The IC50 was calculated from the regression curve of the titration data.
# RT4 = experiment: Proliferation assay using bladder cancer cell lines: RT4; assay type: cell-based, human; conditions: Homo sapiens, RT-4; 72 h culture, CyQuant proliferation assay
# Experimental: as §1
# NHEK = experiment: Proliferation assay: NHEK normal human keratinocytes; assay type: cell-based; conditions: 72 h culture, CyQuant proliferation assay
# Experimental: as §1
# [3] = test system: Renin mRNA in As4.1 cells; experiment: Renin mRNA inhibition in murine juxtaglomerular cell line As4.1; assay type: cell-based; conditions: Mus musculus, 24 h, real time PCR normalized versus β-actin, read-out: Renin mRNA inh.As4.1/wt
# Experimental: As4.1 cells (80% subconfluent) were treated in complete medium with compounds of the invention at 10^−8, 10^−9 and 10^−10 M for 24 h. Total RNA was extracted using RNeasy Mini kit (Qiagen); treated with DNase I (Qiagen) and Reverse Transcription Reagent (Applied Biosystems) with Random Examers were used for reverse transcription according to the manufacturers' instructions. Real Time PCR analysis was performed in multiplex using commercially available β-actin VIC-conjugated probe (cat. n. 4352341E, Applied Biosystems) and custom designed mRENIN FAM-conjugated probe (Assay by Design, Applied Biosystems; Forward: […]; Reverse: […]; Probe: FAM-[…]-MGB). Reactions were performed in a 25 μL volume containing 12,5 μl 2× Master Mix (Applied Biosystems), 10 ng/reaction/well cDNA, and 2,5 μM each gene-specific primer. An ABI PRISM 7700 analyzer (Applied Biosystems) was used at 50° C. for 2 minutes and 95° C. for 10 minutes, followed by 40 cycles at 95° C. for 15 seconds and 60° C. for 1 minute. Cycle threshold (Ct) values were exported onto Excel worksheets for analysis. Test cDNA results were normalized versus mouse β-actin housekeeping gene. Fold differences in gene expression between the subtracted versus the unsubtracted populations were expressed using the method of 2^−ΔΔCt. (Table 6)
# [4] = Theoretical maximum absorbable dose (MAD), human intestine; conditions: calculated using PAMPA permeability
# Experimental: (§2) To evaluate the intestinal absorption potential of selected compounds, the maximum absorbable dose (MAD) in mouse, rat and human intestines was also calculated using a modification of the original equation (Johnson 1996, Hilgers 2003): MAD (mg)=S·Pe·(A/ILV)·SIV·SITT (Eq. 1), where S is the solubility measured at pH 7.4 (mg/ml), Pe is the permeability measured in artificial membranes (PAMPA) or in the apical to basolateral direction of Caco-2 cells (cm/sec), A is the intestinal surface area (cm^2), ILV is the intestinal lumen volume (cm^3), SIV is the small intestinal volume (ml) and SITT is the small intestinal transit time (sec).
# [5] = Theoretical maximum absorbable dose (MAD), mouse intestine; conditions: calculated using PAMPA permeability
# Experimental: as §2
# [6] = Theoretical maximum absorbable dose (MAD), rat intestine; conditions: calculated using PAMPA permeability
# Experimental: as §2
# [7] = Permeability by passive diffusion (PAMPA); assay type: in vitro ADME; conditions: for PAMPA % Memb: % retention in the membrane; for Papp at 4 h, 10 μM: PAMPA
# Experimental: Permeability by Passive Diffusion (PAMPA). Experiments were performed in 96-well acceptor and donor plates using 15% soy lecithin in n-dodecane artificial membranes. The acceptor plate (96 well hydrophobic filter plate (MAIP N45, Millipore)) was prepared by adding 4 μL of artificial membrane material on the top of the filter and the plate was filled with 200 μL of HEPES buffered HBSS (pH 7.4). The donor plate (an indented 96-well plate from p-ION, MA) was filled with 200 μL of HEPES buffered HBSS (pH 7.4) containing 10 μM of the test compounds. The acceptor plate was placed onto the donor plate to form a “sandwich” and was incubated at 37° C. for 4 hours. After the incubation period, acceptor, donor and initial donor solution (reference) were analysed via LC-MS/MS. Data were reported as bilateral Peff in cm×10^−6/sec and % retention in the membrane.
# Caco-2 cells = experiment: Apparent permeability on Caco-2 cells; assay type: in vitro ADME, Human; conditions: for Papp_A > B / Papp_B >: 10 μM, 2 h; for Mass Bal A > B: unit assumed
# Experimental: (§3) Apparent Permeability on Caco-2 cells. Human colon adenocarcinoma (Caco-2) cells were obtained from the American Type Culture Collection (Rockville, Md.). Permeability studies were performed using a 24-well format in both transport directions, apical to basolateral (A→B) and basolateral to apical (B→A), on Caco-2 monolayers. Fresh donor solution containing 10 μM test compound was added to either the apical or the basolateral side, while drug-free medium was placed on the opposite side. The 24-transwell plates were placed on a plate shaker at 37° C. After 2 h, the buffer from the receiving and donor chambers were collected and aliquots were analysed via LC-MS/MS. The data reported were the permeability cm·10^−6/sec and the efflux ratio.
# [8] = Solubility in aqueous buffer; assay type: physicochemical; conditions: kinetic from dmso stock; for solubility at 2 h: pH 7, 2 h; for solubility at 24 h: pH 7, 24 h; for solubility: pH 7.4, aqueous buffer
# Experimental: […] A 96-well plate format assay was used. […] Solutions were filtered through a 0.22 μm and concentrations of the concentration of the compound in the filtrate was determined using LC-MS/MS in comparison with 1 and 10 μM standards. The measurements were expressed as mM.
# [9] = molecular target: T1, human cDNA expressed CYP3A4 (Homo sapiens, UniProt P08684); experiment: Metabolic stability (hCYP3A4); assay type: in vitro ADME; conditions: 2 μM, 60 min at 37° C.
# T1 construct: purchased Gentest
# Experimental: Metabolic Stability (hCYP34A4). The relative stability of the substrate was determined by measuring the amount of substrate remaining following incubation with human cDNA expressed CYP3A4 microsomal preparations (Gentest, 6 pmol) against a control microsomal incubation containing no active cytochrome P450. The assay was performed in a 96-well plate format. Each compound was incubated at a concentration of 2 μM for 60 min at 37° C. LC-MS/MS was used for determining the compound remaining after incubation. The results were expressed as % remaining.
# [10] = Apparent permeability on Caco-2 cells; assay type: in vitro ADME, Human; conditions: human, Caco-2, Table 8
# Experimental: as §3
# T1 sequence (P08684 whole entry): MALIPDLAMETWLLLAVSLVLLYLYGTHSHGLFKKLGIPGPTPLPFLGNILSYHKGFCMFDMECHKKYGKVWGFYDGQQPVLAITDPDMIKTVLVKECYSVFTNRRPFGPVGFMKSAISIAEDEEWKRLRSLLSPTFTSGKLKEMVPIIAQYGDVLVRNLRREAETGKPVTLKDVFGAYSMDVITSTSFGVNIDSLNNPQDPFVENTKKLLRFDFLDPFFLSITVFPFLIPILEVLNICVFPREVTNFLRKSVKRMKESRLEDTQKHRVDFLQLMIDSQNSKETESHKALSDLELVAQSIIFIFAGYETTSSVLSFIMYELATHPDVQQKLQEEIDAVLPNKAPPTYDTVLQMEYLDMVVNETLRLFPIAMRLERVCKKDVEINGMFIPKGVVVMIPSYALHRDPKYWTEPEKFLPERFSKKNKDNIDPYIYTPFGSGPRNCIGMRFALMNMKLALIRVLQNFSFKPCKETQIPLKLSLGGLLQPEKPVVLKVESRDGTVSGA
SMILES,MTD at 4 days [1],IC50 [2],IC50 (RT112),IC50 (RT4),IC50 (NHEK),IC50 [3],MAD (ug) human (PAMPA) [4],MAD (ug) mouse (PAMPA) [5],MAD (ug) rat (PAMPA) [6],PAMPA % Memb [7],"Papp at 4 h, 10 μM ([7]; pH 7.4, Table 8)",Papp_A > B (Caco-2 cells; apical to basolateral),Mass Bal A > B (Caco-2 cells; apical to basolateral),Mass Bal B > A (Caco-2 cells; basolateral to apical),Papp_B > (Caco-2 cells; basolateral to apical),solubility at 2 h [8],solubility at 24 h [8],solubility [8],CYP3A4 stability [9],other results
"C[C@]12CCC/C(=C\C=C3\CC(O)C[C@H](O)C3)C1CC=C2C1(C/C=C\C(O)(C(F)(F)F)C(F)(F)F)CC1 (stereo partly drawn) [Compound 7, 1α,25-Dihydroxy-16-ene-20-cyclopropyl-23,24-Z-ene-26,27-hexafluoro-19-nor-cholecalciferol]",0.3 µg/kg,0.055 nM,9600 nM,2200 nM,4400 nM,2.58 nM,2788.31 µg,8.20 µg,39.99 µg,58.1%,47.8 ×10⁻⁶ cm/s,0.0 cm·10^−6/sec,13.1%,83.3%,0.0 cm·10^−6/sec,4.2 µM,4.1 µM,2.17 µg/mL,58.3 % remaining,"Caco2 Papp_AB (Caco-2 cells; apical to basolateral, Table 8): 0.00 10-6 cm/sec; Caco2 Papp_BA (Caco-2 cells; basolateral to apical, Table 8): 0.00 10-6 cm/sec"
"CC(C)(O)CCCC1(C2=CCC3/C(=C/C=C4/CC(O)C[C@H](O)C4)CCC[C@]23C)CC1 (stereo partly drawn) [Compound 9, 1α,25-Dihydroxy-16-ene-20-cyclopropyl-19-nor-cholecalciferol]",1 µg/kg,0.031 nM,> 30000 nM,9900 nM,6100 nM,8.78 nM,8023.11 µg,23.61 µg,115.08 µg,97.1%,36 ×10⁻⁶ cm/s,4.8 cm·10^−6/sec,36.7%,89.1%,6.5 cm·10^−6/sec,19.9 µM,21.6 µM,8.27 µg/mL,33.3 % remaining,"Papp at 4 h, 10 μM ([7]; pH 7.4, 10 μM, pH 7.4, 37° C., 4 hours, Table 9): 36 ×10⁻⁶ cm/s; Papp A→B at 2 h, 10 μM ([10]; apical to basolateral, read-out: Caco2 Papp_AB): 4.82 ×10⁻⁶ cm/s; Papp B→A at 2 h, 10 μM ([10]; basolateral to apical, read-out: Caco2 Papp_BA): 6.46 ×10⁻⁶ cm/s"
